Reference: the NIST ThermoML archive (doi:10.1016/j.tca.2015.03.015)
± gives the expanded uncertainty stated by the source.

Experiment: mn = molality of the nth substance listed, in mol/kg
Details: 100 kPa, Liquid; for speed of sound: Frequency=3 MHz, Sing-around technique in a fixed-path interferometer; for mass density: Vibrating tube method

Q: Which speed of sound (288.15 K, m1 = 0.25) does the source give for `O=C(CO)[C@@H](O)[C@H](O)[C@H](O)CO` [D-fructose] + O here?
A: 1484.3 ± 2.2 m/s

Q: What about the speed of sound (288.15 K, m1 = 0.35) of the same molecule?
A: 1491.3 ± 2.2 m/s

Q: And the mass density (288.15 K, m1 = 0.05)?
A: 1003.31 ± 0.16 kg/m3

Q: What about the mass density (288.15 K, m1 = 0.25) of the same molecule?
A: 1017.01 ± 0.17 kg/m3

Q: And the mass density (288.15 K, m1 = 0.35)?
A: 1023.52 ± 0.17 kg/m3

Q: And the mass density (293.15 K, m1 = 0.05)?
A: 1002.37 ± 0.16 kg/m3

Q: What about the mass density (293.15 K, m1 = 0.15) of the same molecule?
A: 1009.21 ± 0.16 kg/m3

Q: What about the mass density (293.15 K, m1 = 0.25) of the same molecule?
A: 1015.91 ± 0.17 kg/m3

Q: What about the mass density (293.15 K, m1 = 0.35) of the same molecule?
A: 1022.43 ± 0.17 kg/m3

Q: And the speed of sound (298.15 K, m1 = 0.25)?
A: 1513 ± 2.2 m/s

Q: And the speed of sound (298.15 K, m1 = 0.35)?
A: 1519.1 ± 2.2 m/s

Q: And the mass density (298.15 K, m1 = 0.05)?
A: 1001 ± 0.16 kg/m3

Q: What about the mass density (298.15 K, m1 = 0.25) of the same molecule?
A: 1014.56 ± 0.17 kg/m3

Q: And the mass density (298.15 K, m1 = 0.35)?
A: 1021.07 ± 0.17 kg/m3

Q: And the speed of sound (303.15 K, m1 = 0.05)?
A: 1512.2 ± 2.2 m/s

Q: And the speed of sound (303.15 K, m1 = 0.15)?
A: 1518.1 ± 2.2 m/s

Q: And the speed of sound (303.15 K, m1 = 0.35)?
A: 1530.3 ± 2.2 m/s

Q: And the mass density (303.15 K, m1 = 0.05)?
A: 999.53 ± 0.16 kg/m3

Q: And the mass density (303.15 K, m1 = 0.25)?
A: 1013.07 ± 0.17 kg/m3

Q: What about the mass density (303.15 K, m1 = 0.35) of the same molecule?
A: 1019.48 ± 0.17 kg/m3

Q: And the speed of sound (308.15 K, m1 = 0.25)?
A: 1534.2 ± 2.2 m/s

Q: And the speed of sound (308.15 K, m1 = 0.35)?
A: 1539.9 ± 2.2 m/s

Q: What about the mass density (308.15 K, m1 = 0.05) of the same molecule?
A: 998.08 ± 0.16 kg/m3

Q: What about the mass density (308.15 K, m1 = 0.15) of the same molecule?
A: 1004.78 ± 0.16 kg/m3

Q: What about the mass density (308.15 K, m1 = 0.35) of the same molecule?
A: 1017.69 ± 0.17 kg/m3
